In patent US20250059174A1, “Pharmaceutical Compounds and Compositions as C-Kit Kinase Inhibitors” (Enanta Pharmaceuticals, Inc., priority 2023, published 2025):

Columns and labels:
M-07e cells = assay: M-07e cellular assay (SCF-mediated cell proliferation); type: cell-based; conditions: Homo sapiens, 72 hours, CellTiter Glo
Summary of the method: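 EC50 values reflect inhibition of SCF-driven proliferation, with SCF at EC90 and a 72 h compound exposure, measured as CellTiter Glo luminescence. Growth is scaled between no-SCF (0%) and untreated (100%) wells.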

[1] = biological target: Recombinant human c-KIT kinase (Homo sapiens (Human), UniProt P10721); assay: c-KIT kinase chemiluminescence assay (ADP-Glo); type: biochemical; conditions: ATP 50 μM
Summary of the method: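 ADP formed by c-KIT on polyEY over 2 h at RT (after 30 min enzyme preincubation; Tris pH 7.5, MgCl2, BSA, DTT buffer) was detected by ADP-Glo luminescence. IC50 and Hill slope were fitted to control-normalized activity across compound concentrations.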

Recombinant human c-KIT kinase, sequence (P10721 26-976): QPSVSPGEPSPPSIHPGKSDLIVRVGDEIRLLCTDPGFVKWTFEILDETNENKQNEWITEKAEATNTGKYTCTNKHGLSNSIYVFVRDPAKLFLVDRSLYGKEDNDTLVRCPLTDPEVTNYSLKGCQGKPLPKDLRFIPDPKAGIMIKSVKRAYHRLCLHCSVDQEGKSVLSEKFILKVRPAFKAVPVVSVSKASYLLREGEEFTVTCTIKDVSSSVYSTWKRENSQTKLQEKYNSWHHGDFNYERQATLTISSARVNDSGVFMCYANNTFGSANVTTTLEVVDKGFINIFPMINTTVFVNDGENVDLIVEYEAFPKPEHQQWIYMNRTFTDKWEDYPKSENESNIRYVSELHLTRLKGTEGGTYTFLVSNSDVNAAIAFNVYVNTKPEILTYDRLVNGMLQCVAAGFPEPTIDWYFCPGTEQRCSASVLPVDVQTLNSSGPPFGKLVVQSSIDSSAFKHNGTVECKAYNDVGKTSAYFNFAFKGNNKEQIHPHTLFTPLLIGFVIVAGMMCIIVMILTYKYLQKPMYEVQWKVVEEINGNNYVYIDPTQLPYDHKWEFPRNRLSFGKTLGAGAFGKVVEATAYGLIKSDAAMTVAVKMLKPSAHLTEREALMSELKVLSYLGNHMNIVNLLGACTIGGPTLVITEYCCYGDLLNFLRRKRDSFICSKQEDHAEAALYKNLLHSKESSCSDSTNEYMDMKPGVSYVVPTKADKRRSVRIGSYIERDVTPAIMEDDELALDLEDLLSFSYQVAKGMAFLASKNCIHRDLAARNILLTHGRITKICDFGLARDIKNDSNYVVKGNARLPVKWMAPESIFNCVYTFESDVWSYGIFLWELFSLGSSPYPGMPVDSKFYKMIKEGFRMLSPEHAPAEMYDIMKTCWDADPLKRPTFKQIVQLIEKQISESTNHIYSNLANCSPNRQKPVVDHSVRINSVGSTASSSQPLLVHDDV

Compound | EC50 (M-07e cells) [nM] | IC50 [1] [nM]
Cc1ccc(-c2noc(N3CC(F)(F)C3)n2)cc1NC(=O)c1cnn2ccc(N3CC4(C3)CC(O)(C(F)F)C4)cc12 [Example 281-98] | < 100 | < 100
Cc1ccc(-c2noc(N3CC(O)(C(F)(F)F)C3)n2)cc1NC(=O)c1cnn2ccc(N3CC4(C3)CC(O)(C(F)F)C4)cc12 [Example 281-99] | < 100 | < 100
Cc1ccc(-c2noc(N3CCOCC3)n2)cc1NC(=O)c1cnn2ccc(N3CC4(C3)CC(O)(C(F)F)C4)cc12 [Example 281-100] | < 100 | 100 to 1000
Cc1ncc(-c2noc(C3(F)CN(C(=O)OC(C)(C)C)C3)n2)cc1NC(=O)c1cnn2ccc(N3CC4(C3)CC(O)(C(F)F)C4)cc12 [Example 281-101] | 100 to 1000 | > 1000
Cc1ncc(-c2noc(C3(F)CN(C(=O)C(C)(F)F)C3)n2)cc1NC(=O)c1cnn2ccc(N3CC4(C3)CC(O)(C(F)F)C4)cc12 [Example 281-103] | > 1000 | 100 to 1000
COC(=O)N1CC(F)(c2nc(-c3cnc(C)c(NC(=O)c4cnn5ccc(N6CC7(C6)CC(O)(C(F)F)C7)cc45)c3)no2)C1 [Example 281-104] | > 1000 | > 1000
Cc1ncc(-c2noc(C3(F)CN(CC(F)F)C3)n2)cc1NC(=O)c1cnn2ccc(N3CC4(C3)CC(O)(C(F)F)C4)cc12 [Example 281-105] | 100 to 1000 | 100 to 1000
Cc1ccc(-c2noc(C3CC4(C3)CN(C(=O)[C@H]3C[C@@H]3F)C4)n2)cc1NC(=O)c1cnn2ccc(N3CC4(COC4)C3)cc12 [Example 281-106] | 100 to 1000 | 100 to 1000
Cc1ccc(-c2noc(C3CC4(C3)CN(C(=O)[C@H]3C[C@@H]3F)C4)n2)cc1NC(=O)c1cnn2ccc(N3CC4(C3)CC(O)(C(F)F)C4)cc12 [Example 281-107] | 100 to 1000 | 100 to 1000
COC(=O)N1CCC(c2nc(-c3ccc(C)c(NC(=O)c4cnn5ccc(N6CC7(C6)CC(O)(C(F)F)C7)cc45)c3)no2)C1 (stereo not shown) [Example 281-108] | < 100 | < 100
COC(=O)N1CC2(CC(c3nc(-c4ccc(C)c(NC(=O)c5cnn6ccc(N7CC8(C7)CC(O)(C(F)F)C8)cc56)c4)no3)C2)C1 [Example 281-109] | 100 to 1000 | < 100
CCOC(=O)N1CC(c2nc(-c3ccc(C)c(NC(=O)c4cnn5ccc(N6CC7(COC7)C6)cc45)c3)no2)C1 [Example 281-110] | < 100 | < 100
Cc1sc(-c2noc(C3(F)CN(C(=O)[C@H]4C[C@@H]4F)C3)n2)cc1NC(=O)c1cnn2ccc(N3CC4(C3)CC(O)(C(F)F)C4)cc12 [Example 281-111] | 100 to 1000 | > 1000
Cc1sc(-c2noc([C@H]3C[C@@H](OC(F)(F)F)C3)n2)cc1NC(=O)c1cnn2ccc(N3CC4(C3)CC(O)(C(F)F)C4)cc12 [Example 281-112] | 100 to 1000 | < 100
Cc1sc(-c2noc([C@H]3C[C@@H](OC(F)(F)F)C3)n2)cc1NC(=O)c1cnn2ccc(N3CC4(COC4)C3)cc12 [Example 281-113] | 100 to 1000 | 100 to 1000
Cc1sc(-c2noc(C3CN(C(=O)OC(C)(C)C)C3)n2)cc1NC(=O)c1cnn2ccc(N3CC4(COC4)C3)cc12 [Example 281-114] | > 1000 | > 1000
Cc1sc(-c2noc(C3CN(C(=O)OC(C)(C)C)C3)n2)cc1NC(=O)c1cnn2ccc(N3CC4(C3)CC(O)(C(F)F)C4)cc12 [Example 281-115] | > 1000 | > 1000
O=C(Nc1cc(-c2noc([C@H]3C[C@@H]3F)n2)ccc1C(F)F)c1cnn2ccc(N3CC4(COC4)C3)cc12 [Example 281-116] | 100 to 1000 | 100 to 1000
Cc1sc(-c2noc([C@H]3C[C@@H]3F)n2)cc1NC(=O)c1cnn2ccc(N3CC4(COC4)C3)cc12 [Example 281-117] | 100 to 1000 | 100 to 1000
O=C(Nc1cc(-c2noc([C@H]3C[C@@H]3F)n2)ccc1C(F)F)c1cnn2ccc(N3CC4(C3)CC(O)(C(F)F)C4)cc12 [Example 281-118] | < 100 | 100 to 1000
O=C(Nc1cc(-c2noc(N3CC(F)(F)C3)n2)ccc1Cl)c1cnn2ccc(N3CC4(C3)CC(O)(C(F)F)C4)cc12 [Example 281-119] | < 100 | 100 to 1000
Cc1ncc(-c2noc(N3CC(F)(F)C3)n2)cc1NC(=O)c1cnn2ccc(N3CC4(COC4)C3)cc12 [Example 281-120] | 100 to 1000 | 100 to 1000

Compound | EC50 (M-07e cells) [nM] | IC50 [1] [nM]
Cc1ncc(-c2noc(N3CC(F)(F)C3)n2)cc1NC(=O)c1cnn2ccc(N3CC4(C3)CC(O)(C(F)F)C4)cc12 [Example 281-121] | < 100 | 100 to 1000
Cc1sc(-c2noc(C3CN(C(=O)C4CC4)C3)n2)cc1NC(=O)c1cnn2ccc(N3CC4(C3)CC(O)(C(F)F)C4)cc12 [Example 281-122] | > 1000 | 100 to 1000
O=C(Nc1cc(-c2noc(N3CC(O)(C(F)(F)F)C3)n2)ccc1Cl)c1cnn2ccc(N3CC4(COC4)C3)cc12 [Example 281-123] | < 100 | < 100
O=C(Nc1cc(-c2noc(N3CC(F)(F)C3)n2)ccc1Cl)c1cnn2ccc(N3CC4(COC4)C3)cc12 [Example 281-124] | < 100 | 100 to 1000
O=C(Nc1cc(-c2noc(N3CC(O)(C(F)(F)F)C3)n2)ccc1Cl)c1cnn2ccc(N3CC4(C3)CC(O)(C(F)F)C4)cc12 [Example 281-125] | < 100 | < 100
Cc1sc(-c2noc(C3CN(C(=O)[C@H]4C[C@@H]4F)C3)n2)cc1NC(=O)c1cnn2ccc(N3CC4(COC4)C3)cc12 [Example 281-126] | > 1000 | > 1000
Cc1sc(-c2noc(C3CN(C(=O)[C@H]4C[C@@H]4F)C3)n2)cc1NC(=O)c1cnn2ccc(N3CC4(C3)CC(O)(C(F)F)C4)cc12 [Example 281-127] | > 1000 | 100 to 1000
Cc1sc(-c2noc(C3CN(C(=O)C4(F)CC4)C3)n2)cc1NC(=O)c1cnn2ccc(N3CC4(COC4)C3)cc12 [Example 281-128] | 100 to 1000 | 100 to 1000
Cc1sc(-c2noc(C3CN(C(=O)C4(F)CC4)C3)n2)cc1NC(=O)c1cnn2ccc(N3CC4(C3)CC(O)(C(F)F)C4)cc12 [Example 281-129] | 100 to 1000 | 100 to 1000
Cc1ncc(-c2noc(C3CN(CC(F)F)C3)n2)cc1NC(=O)c1cnn2ccc(N3CC4(C3)CC(O)(C(F)F)C4)cc12 [Example 281-130] | 100 to 1000 | 100 to 1000
COC(=O)N1CCC(c2nc(-c3ccc(C)c(NC(=O)c4cnn5ccc(N6CC7(COC7)C6)cc45)c3)no2)C1 (stereo not shown) [Example 281-131] | < 100 | < 100
COC(=O)N1CCC(c2nc(-c3ccc(C)c(NC(=O)c4cnn5ccc(N6CC7(COC7)C6)cc45)c3)no2)CC1 [Example 281-132] | < 100 | < 100
COC(=O)N1CC2(CC(c3nc(-c4ccc(C)c(NC(=O)c5cnn6ccc(N7CC8(COC8)C7)cc56)c4)no3)C2)C1 [Example 281-133] | 100 to 1000 | 100 to 1000
COC(=O)N1CCC(c2nc(-c3ccc(C)c(NC(=O)c4cnn5ccc(N6CC7(C6)CC(O)(C(F)F)C7)cc45)c3)no2)CC1 [Example 281-134] | < 100 | < 100
Cc1ccc(-c2noc([C@]3(C)C[C@H](OC(F)F)C3)n2)cc1NC(=O)c1cnn2ccc(N3CC4(COC4)C3)cc12 [Example 281] | < 100 | < 100
COc1cccc(-c2ncc(C(=O)Nc3cc(-c4noc([C@H]5C[C@@H]5F)n4)ccc3C)o2)c1 [Example 283] | < 100 | 100 to 1000
COc1ccccc1-c1ncc(C(=O)Nc2cc(-c3noc([C@H]4C[C@@H]4F)n3)ccc2C)o1 [Example 284] | > 1000 | > 1000
Cc1ccc(-c2noc([C@H]3C[C@@H]3F)n2)cc1NC(=O)c1cnc(-c2cccnc2)o1 [Example 285] | > 1000 | > 1000
Cc1ccc(-c2noc([C@H]3C[C@@H]3F)n2)cc1NC(=O)c1cnc(-c2ccncc2)o1 [Example 286] | 100 to 1000 | > 1000
Cc1ccc(-c2noc([C@H]3C[C@@H]3F)n2)cc1NC(=O)c1cnc(-c2ccc(N)nc2)o1 [Example 287] | 100 to 1000 | 100 to 1000
Cc1ccc(-c2noc([C@H]3C[C@@H]3F)n2)cc1NC(=O)c1cnc(-c2cccc(N3CC4(COC4)C3)c2)o1 [Example 288] | 100 to 1000 | 100 to 1000
Cc1ccc(-c2noc([C@H]3C[C@@H]3F)n2)cc1NC(=O)c1cnc(-c2ccccc2N2CC3(COC3)C2)o1 [Example 289] | > 1000 | > 1000
